Laboratory results: ChEMBL document CHEMBL1201862, “PubChem BioAssay data set” (2004)
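Each compound was tested at five concentrations against cells in 96-well plates for 48 hours. At the GI50, growth is halved.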 Active and inactive are the calls of the source. No stated cut-off is given here; in the data, active = GI50 up to about 1.1 µM and inactive = higher.

Key:
Assay in all cases: NCI anticancer screen, dose series, 48 h
OVCAR-8 = tested on: OVCAR-8
UACC-257 = tested on: UACC-257
TK-10 = tested on: TK-10
KM12 = tested on: KM12
HOP-62 = tested on: HOP-62
HCT-116 = tested on: HCT-116
ACHN = tested on: ACHN
SK-MEL-28 = tested on: SK-MEL-28
DU-145 = tested on: DU-145
OVCAR-5 = tested on: OVCAR-5
SR = tested on: SR
A549 = tested on: A549
HT-29 = tested on: HT-29
SW-620 = tested on: SW-620
LOX IMVI = tested on: LOX IMVI
NCI/ADR-RES = tested on: NCI/ADR-RES
HL-60 = tested on: HL-60
NCI-H522 = tested on: NCI-H522
IGROV-1 = tested on: IGROV-1

Measured: GI50

CC(=O)NC(NCCN)(c1ccccc1)c1ccccc1
inactive: OVCAR-8 > 100 µM | UACC-257 > 100 µM | TK-10 > 100 µM | KM12 > 100 µM | HOP-62 > 100 µM | HCT-116 > 100 µM | ACHN > 100 µM | SK-MEL-28 > 100 µM | DU-145 > 100 µM | OVCAR-5 67.9 µM | SR > 100 µM | A549 > 100 µM | HT-29 > 100 µM | SW-620 > 100 µM | LOX IMVI > 100 µM | NCI/ADR-RES > 100 µM | HL-60 > 100 µM

Cc1n[nH]c(=O)n1/N=C/c1ccc([N+](=O)[O-])o1
inactive: NCI-H522 3.13 µM | OVCAR-8 15.2 µM | UACC-257 13 µM | TK-10 18.1 µM | KM12 13.7 µM | HOP-62 26.9 µM | HCT-116 8.39 µM | ACHN 10.9 µM | SK-MEL-28 11.2 µM | DU-145 10.4 µM | OVCAR-5 21.4 µM | A549 16.7 µM | HT-29 12.9 µM | SW-620 13.9 µM | LOX IMVI 8.85 µM | NCI/ADR-RES 17.4 µM

N#CC(C(=O)c1cccnc1Cl)c1nc2cc(C(F)(F)F)ccc2s1 (stereo unspecified)
inactive: NCI-H522 19.8 µM | OVCAR-8 > 100 µM | UACC-257 75 µM | TK-10 55.5 µM | IGROV-1 > 100 µM | KM12 58.9 µM | HOP-62 34.8 µM | HCT-116 26.1 µM | ACHN > 100 µM | SK-MEL-28 56.8 µM | DU-145 > 100 µM | OVCAR-5 33.9 µM | A549 > 100 µM | HT-29 28.3 µM | SW-620 47.1 µM | LOX IMVI 37.3 µM | NCI/ADR-RES 65.5 µM

COc1ccc(C(=C[N+](=O)[O-])c2ccc(OC)cc2)cc1
inactive: NCI-H522 4.45 µM | OVCAR-8 13 µM | UACC-257 8.59 µM | TK-10 25.4 µM | IGROV-1 9.42 µM | KM12 4.5 µM | HOP-62 13.3 µM | HCT-116 8.05 µM | ACHN 30.1 µM | SK-MEL-28 16.2 µM | OVCAR-5 38.8 µM | SR 4.38 µM | A549 13.6 µM | HT-29 4.52 µM | SW-620 4.02 µM | LOX IMVI 9.44 µM | HL-60 5.19 µM

CC(=O)OC1CC2C(C)(C)C(=O)C=CC2(C)C2CCC3(C)C(c4ccoc4)OC(=O)C4OC43C12C (stereo unspecified)
inactive: NCI-H522 5.18 µM | OVCAR-8 8.04 µM | UACC-257 15.9 µM | TK-10 95.1 µM | IGROV-1 10.1 µM | KM12 3.92 µM | HOP-62 26 µM | HCT-116 2.4 µM | ACHN 8.73 µM | SK-MEL-28 20.4 µM | DU-145 2.85 µM | OVCAR-5 19.7 µM | A549 7.66 µM | HT-29 7.46 µM | SW-620 6.28 µM | NCI/ADR-RES 5.32 µM | HL-60 5.55 µM

CN/C(=N\C#N)N(Cc1ccccc1)Cc1ccccc1
inactive: NCI-H522 > 100 µM | OVCAR-8 > 100 µM | UACC-257 > 100 µM | TK-10 > 100 µM | IGROV-1 > 100 µM | KM12 > 100 µM | HOP-62 > 100 µM | HCT-116 > 100 µM | ACHN > 100 µM | SK-MEL-28 > 100 µM | OVCAR-5 > 100 µM | SR > 100 µM | A549 > 100 µM | HT-29 > 100 µM | SW-620 > 100 µM | LOX IMVI > 100 µM | HL-60 > 100 µM

COc1ccc2c(=O)c([Se]c3coc4cc(OC)ccc4c3=O)coc2c1
inactive: NCI-H522 > 100 µM | OVCAR-8 41.7 µM | UACC-257 > 100 µM | TK-10 > 100 µM | IGROV-1 34.4 µM | KM12 41.1 µM | HOP-62 > 100 µM | HCT-116 19.8 µM | ACHN 72.1 µM | SK-MEL-28 52.1 µM | OVCAR-5 > 100 µM | SR 44.1 µM | A549 32.6 µM | HT-29 > 100 µM | SW-620 > 100 µM | LOX IMVI > 100 µM | HL-60 40.4 µM

CC(C)(C)OC(=O)N1C[C@H](CC(=O)OCc2ccccc2)C[C@H]1C(=O)OCC(Cl)(Cl)Cl
inactive: NCI-H522 1.62 µM | OVCAR-8 6.07 µM | UACC-257 5.89 µM | TK-10 15.9 µM | KM12 2.76 µM | HOP-62 22.8 µM | HCT-116 3.88 µM | ACHN 5.01 µM | SK-MEL-28 13.6 µM | DU-145 > 50 µM | OVCAR-5 20.2 µM | SR 2.04 µM | A549 4.69 µM | HT-29 4.7 µM | SW-620 11.4 µM | LOX IMVI 4.97 µM | NCI/ADR-RES 2.64 µM | HL-60 2.68 µM
